Measurements reported in patent publication US20250059499A1, “CELL-SURFACE ENGINEERING COMPOSITIONS AND METHODS FOR THE PREVENTION OF IMMUNE REJECTION” (THE UNIVERSITY OF BRITISH COLUMBIA, priority 2021, published 2025).
No end group written: not given here.

Assays:
Ea.hy926 cells [1] = assay: Cell viability (MTS assay) of modified cells; type: cell-based
Experimental: (§1) Cell viability measurements were performed on modified cells after washing with warm PBS twice. Then, the cells were subjected to MTS (3-(4,5-dimethylthiazol-2-yl)-5-(3-carboxymethoxyphenyl)-2-(4-sulfophenyl)-2H-tetrazolium) assay kit (Cell Titer 96 Aqueous One solution Cell Proliferation Assay™) and by following the manufacturer's protocol. All recorded values were normalized to healthy cells untreated with polymers. Platelet activation was performed by PE-labelled anti human […] stain was prepared by diluting 20 times using plasma. An aliquot of each platelet sample was labelled using the diluted PE-labelled anti-human […] solution (1:10 dilution) for 30 minutes at room temperature. Platelets incubated in 0.1 mM TRAP were used as positive control and platelets incubated in PE-labelled IgG were used for non-specific binding control. Each sample was analyzed for 10000 platelet events. Each experiment was replicated using a minimum of 3 donors and each donor was performed in triplicates. For human pancreatic islets, live/dead imaging assay was used for cell viability and DTZ detection assay was used to determine insulin-producing beta cells from mixed cell cultures.

Ea.hy926 cells [2] = assay: Ammonia generation assay for gtTGase ligation on endothelial cells; type: cell-based; details: 4° C.; for NH3 production with TGase isoforms: gtTGase and mTGase, 30 minutes
Experimental: (§2) The solutions were mixed thoroughly and incubated at 4° C. for 30 minutes under static conditions. The cell supernatant was collected and the cells were washed three times with PBS and subjected to further analysis. The assessment of polymer attachment to endothelial cells are assessed by ammonia assay.
The extent of gtTGase ligation was assessed using an ammonia assay kit (Sigma™, MAK310) and used according to the manufacturer's protocols. This kit is used for the quantitative determination of ammonia (NH3), a side product in the gtTGase reaction.^6 This assay is based on the o-phthalaldehyde method in which the reagent reacts with NH3 producing a fluorescent product (λex=360 nm/λm=450 nm), proportional to the NH3 concentration in the sample.^7,8 Briefly, PBS was supplemented with 5 mM CaCl2 and 3 mM dithiothreitol (DTT). In a 96 well plate, containing either endothelial cells or glycine ethyl ether (GEE, amine donor), Q-tagged polymer (acyl donor) and guinea pig liver transglutaminase (gtTGase, Sigma™ T5398) were added to the PBS solution to a final concentration of 5 mM, 0.5 mM and 0.2 U/mL respectively (Vf=100 μL). The reaction was thoroughly mixed and rocked gently at 4° C. for 30 minutes. The sample was diluted four-fold and a 10 μL aliquot of the reaction mixture was then transferred to a tube containing 90 μL complete ammonia assay reagent and mixed thoroughly. The solution was left to react for 15 minutes at ambient temperature in the dark. The fluorescence intensity was measured at λex=360 nm/λem=450 nm using a spectrophotometer and the quantity of ammonia in solution was calculated according to Eq. 1: […]
EA.hy 926 cells plated for 15 days were washed twice with warm PBS before introducing a reaction cocktail containing 0.5 mM polymer, 5 mM CaCl2, 3 mM DTT and 0.2 U/mL transglutaminase made in DMEM media solution without phenol red. The reaction was incubated at 4° C. for 30 minutes. Then the supernatant was removed and subjected to ammonia generation assay and the cells were washed twice with warm PBS to remove unreacted polymers.

EA.hy 926 monolayers = assay: PMS-induced glycocalyx shedding (WGA stain, flow cytometry); type: cell-based; details: compared to non-sulfated counterparts
Experimental: EA.hy 926 cells were grown to confluency. Media was replaced, washed with DPBS and incubated with […] NADH, […] PMS (unless otherwise noted) and the indicated concentration of polymer; with PMS being last to be added. […] The cells were then washed extensively, stained using WGA ([…]) for 15 minutes and harvested to be analyzed using flow cytometry. Neuraminidase enzyme was used as a positive control to shed the glycocalyx.

[3] = test system: BALB/c aortic allograft in C57/BL/6 recipient; assay: Serum cytokine array after aortic interposition grafting; type: in vivo, mouse; details: 2 days and 15 days post-transplant, 0.5 mM LPGS-Q
Experimental: To assess the immune modulatory effect of enzymatic polymer grafting, an antibody array kit based on a sandwich ELISA principle (Proteome Profiler™, Panel A; R&D Systems™) was used to screen the cytokine and chemokine expression level in sera of animals according to the manufacturer's protocol. Relative expression of 40 murine cytokines and chemokines captured by corresponding antibodies spotted on a nitro-cellulose membrane was determined.
The antibodies for the following cytokines were spotted on the membrane: BLC, C5a, G-CSF, GM-CSF, I-309, Eotaxin, sICAM-1, IFN-g, IL-1a, IL-1b, IL-1ra, IL-2, IL-3, IL-4, IL-5, IL-6, IL-7, IL-10, IL-13, IL-12 p70, IL-16, IL-17 IL-23, IL-27, CXCL10 (IP-10), I-TAC, KC, M-CSF, CCL2 (MCP-1), CCL12 (MCP-5), MIG, CCL3 (MIP-1a), CCL4 (MIP-1b), CXCL2 (MIP-2), CCL5 (RANTES), SDF-1, TARC, TIMP-1, TNF-α, TREM-1. […] Following the blocking step for 1 h at 4° C., a mixture of detection antibody cocktail and 100 μL of serum sample was incubated overnight at 4° C. with the membrane. Captured proteins were labeled with a streptavidin-functionalized IR-Dye (IRDye 680RD Streptavidin; LI-COR) (1:20,000 dilution in 10% bovine serum albumin, 30 min at RT) and scanned using a LI-COR Odyssey Infrared Imaging System™. The software ImageJ™ (Version 1.52s) was used to determine the integrated density of the spots on the array images after background subtraction. […]

human pancreatic islets = assay: Compatibility of cell surface engineering on pancreatic islets (LIVE/DEAD, DTZ); type: cell-based; details: 0.5 mM polymer, room temperature, 30 minutes
Experimental: FIG. 57: Compatibility of cell surface engineering on human pancreatic islet surfaces using gtTGase. Human pancreatic islets were incubated with 0.5 mM Q-tagged polymer, 0.2 U ml-1 gtTGase, 3 mM GSH and 5 mM CaCl2 at room temperature for 30 minutes. Cell viability was assessed using a LIVE/DEAD stain assay and insulin producing activity was assessed by DTZ detection assay.
as §1, with “For human pancreatic islets, live/dead imaging assay was used for cell viability and DTZ detection assay was used to determine insulin-producing beta cells from mixed cell cultures.” left out

platelets = assay: Platelet activation (CD62, flow cytometry); type: cell-based, human; details: 4° C.
Experimental: as §2
as §1, with “For human pancreatic islets, live/dead imaging assay was used for cell viability and DTZ detection assay was used to determine insulin-producing beta cells from mixed cell cultures.” left out

[4] = test system: IL-2 activated PBMCs on TNF-α activated Ea.hy926 monolayers; assay: PBMC adhesion to endothelial surfaces; type: cell-based, human
Experimental: Confluent Ea.hy926 monolayers seeded in a 48 well plate (30,000 cells/well) were activated with TNF-α (2000 U/mL, 3 hours). To obtain PBMCs, EDTA anticoagulated blood from healthy donors was subjected to ficoll density gradient centrifugation Histopaque™-1077 (Sigma Aldrich™). PBMCs were cultured for 24 h in RPMI-1640 containing 10% FBS (v/v), 1000 U/mL recombinant human IL-2 (Cedarlane™)^11 and 1% P/S. Prior to fluorescent labelling, cultured PBMCs were tested for absence of platelets by labelling an aliquot of cells with FITC-labelled anti-human […] (1:200 Beckman Coulter™) and analyzed by flow cytometry (CytoFLEX™, Beckman Coulter™). PBMCs containing <1% platelets were implemented for further study. The PBMC composition was also measured using a hematological analyzer (XN-550™ automated hematology analyzer, Sysmex Canada Inc.™). Following IL-2 treatment the typical composition of the PBMCs were ˜80% lymphocytes, 5% immature granulocytes, 2% basophils and 13% monocytes. […] PMBC adhesion was quantified by lysing the cells with RIPA buffer, spinning at 15,000 g to remove cell debris and measuring the fluorescent intensity of the CMFDA Dye in the lysate (λex/λem=492/517 nm using a plate reader (Spectramax3™, Molecular Devices™).

[5] = test system: TNF-α activated Ea.hy926 cells co-cultured with IL-2 activated PBMCs; assay: PBMC-mediated cytotoxicity (LDH assay); details: polymer ligated to cell surface
Experimental: EA.hy 926 monolayers were activated using TNF-α and PBMCs were activated using IL-2 as described in PBMC adhesion experiments. Following activation, PBMC was collected and resuspended in DMEM (Phenol free, 5% FBS, pen/strep). PBMCs were then added to activated EA.hy 926 monolayers (modified and unmodified) to a final concentration of 0.15×10^6 cells/mL and left to incubate at 37° C. and 5% CO2 for 18 hour. After treatment, the supernatant was collected and cell debris was removed through centrifugation. LDH content was measured using LDC cytotoxicity assay (Biovision Inc.™). Cytotoxicity was calculated using the equation below;
where, LDHsample is the amount of LDH released from the sample, LDHPBMC is the amount of LDH released from PBMC samples not subjected to EA.hy 926 monolayers, LDHalive is the amount of LDH released from EA.hy 926 monolayers not subjected to PBMCs, and LDHdead is the amount of LDH released of EA.hy926 monolayers treated with RIPA buffer for 10 minutes at room temperature.

HMEC-1 cell monolayers = assay: Transendothelial protein passage (FITC-labelled BSA); type: cell-based; details: TNF-α 2000 U/mL, 3 hours; 0.5 mM polymer

With “GQQQLGGGGG-PEG: Q-tagged PEG polymer used to compare TGase isoforms (also: conjugated to PEG, site not given here) [reference compound]” the “cell viability with TGase isoforms” value (Ea.hy926 cells [1]) was “favourable results” and the “NH3 production with TGase isoforms” value (Ea.hy926 cells [2]) was “favourable results”.
In the case of “Linear polyglycerol sulfate glutamine [LPGS-Q]”, the “retention of the glycocalyx structure after exposure to superoxide anions” value (EA.hy 926 monolayers) is reported as “significantly larger retention of the glycocalyx structure”, the “cell metabolic activity after bioconjugation” value (Ea.hy926 cells [1]) is reported as “without affecting cell metabolic activity” and the “cell viability under oxidative stress” value (Ea.hy926 cells [1]; cells grown 15 days, superoxide radicals) is reported as “rescue of the cells viability”. The “cytokine profile of sera of recipient mice” value [3] was “beneficial anti-inflammatory properties post-transplantation”, the “cell viability and insulin producing activity” value (human pancreatic islets) was “still produce viable cells” and the “platelet activation (CD62 surface markers)” value (platelets) was “did not induce platelet activation”. The “PBMC adhesion, in words” value [4] was “evading recognition and subsequent adhesion”, the “NH3 production (surface ligation efficiency)” value (Ea.hy926 cells [2]; 0.5 mM polymer, gtTGase, 30 min) was “higher ammonia production than its non-sulfated counterparts” and the “PBMC-mediated endothelial cell death, in words” value [5] was “reducing PBMC-mediated cytotoxicity”. For the same substance, the “permeability of the monolayer after TNF-α activation” value (HMEC-1 cell monolayers) was “reduce non-specific macromolecule passage”.
For “WLAQRPH-PEG: Q-tagged PEG polymer used to compare TGase isoforms (also: conjugated to PEG, site not given here) [reference compound]”, the “cell viability with TGase isoforms” value (Ea.hy926 cells [1]) was “favourable results” and the “NH3 production with TGase isoforms” value (Ea.hy926 cells [2]) was “favourable results”.
